The record followed here is patent publication US10160747B2, “Compounds and methods for kinase modulation, and indications therefor” (Plexxikon Inc., priority 2016, dated 2018).

Test [1] has as its system MOLM-14 D835Y (endogenous FLT3 ITD and transfected FLT3 D835Y). Kind of test: MOLM-14 D835Y cell proliferation assay (CellTiter-Glo). The class given is cell-based. The conditions noted are these: Homo sapiens, MOLM-14, 72 h; 3 d growth, GMean. In short, it runs like this: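 MOLM-14 cells (FLT3 ITD) carrying D835Y or F691L, 1×10^4 cells/well, eight 1:3 dilutions from 1 μM final, 0.2% DMSO, 3 days at 37 °C, 5% CO2. Viability by CellTiter-Glo luminescence (ATP content); IC50 from concentration-response.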
Background: ATP-based viability assays read luminescence as a measure of living cells.

Test [2] addresses T1, FLT3-ITD (Homo sapiens, UniProt P36888).
T1 sequence (P36888 1-993): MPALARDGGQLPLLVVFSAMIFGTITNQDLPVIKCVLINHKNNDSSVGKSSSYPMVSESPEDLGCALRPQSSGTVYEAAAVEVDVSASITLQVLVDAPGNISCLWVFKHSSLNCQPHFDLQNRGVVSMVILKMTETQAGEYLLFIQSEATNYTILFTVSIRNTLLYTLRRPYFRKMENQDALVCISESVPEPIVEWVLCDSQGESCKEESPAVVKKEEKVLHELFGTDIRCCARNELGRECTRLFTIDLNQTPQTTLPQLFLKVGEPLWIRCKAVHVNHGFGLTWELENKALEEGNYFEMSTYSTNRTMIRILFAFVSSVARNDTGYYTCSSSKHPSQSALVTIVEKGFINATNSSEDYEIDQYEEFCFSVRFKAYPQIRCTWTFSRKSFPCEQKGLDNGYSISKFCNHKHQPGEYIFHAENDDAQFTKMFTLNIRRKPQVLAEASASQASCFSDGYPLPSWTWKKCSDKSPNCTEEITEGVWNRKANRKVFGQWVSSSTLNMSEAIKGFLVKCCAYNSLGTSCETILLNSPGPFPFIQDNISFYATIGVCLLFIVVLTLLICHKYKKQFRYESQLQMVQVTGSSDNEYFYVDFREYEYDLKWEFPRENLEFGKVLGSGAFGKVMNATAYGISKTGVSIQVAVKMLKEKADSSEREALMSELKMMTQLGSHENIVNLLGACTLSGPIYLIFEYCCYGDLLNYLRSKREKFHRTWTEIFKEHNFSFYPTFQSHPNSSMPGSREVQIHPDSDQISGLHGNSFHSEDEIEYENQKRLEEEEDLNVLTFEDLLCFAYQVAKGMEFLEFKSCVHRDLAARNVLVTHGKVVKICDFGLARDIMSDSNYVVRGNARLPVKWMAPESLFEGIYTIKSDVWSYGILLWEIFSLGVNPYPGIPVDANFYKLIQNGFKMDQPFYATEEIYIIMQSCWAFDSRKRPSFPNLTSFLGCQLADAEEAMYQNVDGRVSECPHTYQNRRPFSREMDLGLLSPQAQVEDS
Kind of test: FLT3-ITD recombinant enzyme kinase assay (AlphaScreen). The class given is biochemical. The following applies: 8 pt; read-out: FLT3_ITD 8 pt: IC50. In short, it runs like this:
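IC50 values are derived from reduced AlphaScreen signal as inhibitors block tyrosine phosphorylation of a biotinylated poly(Glu4-Tyr) peptide (30 nM) by recombinant kinase. FLT3 variants are run at 10 μM ATP, c-KIT at 100 μM.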

In the case of `O=C(Cc1ccc(-c2cnc(Nc3cnn(C4CC4)c3)nc2)cc1)Nc1cnc(Cl)c(C(F)(F)F)c1` [Compound P-0233, N-[6-chloro-5-(trifluoromethyl)-3-pyridyl]-2-[4-[2-[(1-cyclopropylpyrazol-4-yl)amino]pyrimidin-5-yl]phenyl]acetamide], the IC50 in test [1] and in test [2] was 0.0001 to 10 µM each time.

Consider `COCCn1cc(Nc2ncc(-c3ccc(CC(=O)Nc4cnc(OC)c(C(F)(F)F)c4)cc3)cn2)cn1` [Compound P-0271, 2-[4-[2-[[1-(2-methoxyethyl)pyrazol-4-yl]amino]pyrimidin-5-yl]phenyl]-N-[6-methoxy-5-(trifluoromethyl)-3-pyridyl]acetamide], for which the IC50 in test [1] and in test [2] was 0.0001 to 10 µM throughout.

Consider `COc1ncc(NC(=O)Cc2ccc(-c3cnc4[nH]nc(N)c4c3)c(F)c2)cc1C(F)(F)F` [Compound P-0203, 2-[4-(3-amino-1H-pyrazolo[3,4-b]pyridin-5-yl)-3-fluoro-phenyl]-N-[6-methoxy-5-(trifluoromethyl)-3-pyridyl]acetamide], for which the 50% inhibitory concentration (IC50) in test [1] and in test [2] was 0.0001 to 10 µM in each case.

As to `CCn1cc(Nc2ncc(-c3ccc(CC(=O)Nc4ccc(C(F)(F)F)nc4)cc3)cn2)cn1` [Compound P-0252, 2-[4-[2-[(1-ethylpyrazol-4-yl)amino]pyrimidin-5-yl]phenyl]-N-[6-(trifluoromethyl)-3-pyridyl]acetamide], the IC50 in test [1] and in test [2] was 0.0001 to 10 µM each time.

Consider `CCOc1n[nH]c2ncc(-c3ccc(CC(=O)Nc4cnc(OC)c(C(F)(F)F)c4)cc3)cc12` [Compound P-0213, 2-(4-(3-ethoxy-1H-pyrazolo[3,4-b]pyridin-5-yl)phenyl)-N-(6-methoxy-5-(trifluoromethyl)pyridin-3-yl)acetamide], for which the IC50 in test [1] and in test [2] was 0.0001 to 10 µM each time.

For the compound `O=C(Cc1ccc(-c2cnc(Nc3cnn(C4CC4)c3)nc2)cc1F)Nc1cnc(Cl)c(C(F)(F)F)c1` [Compound P-0240, N-[6-chloro-5-(trifluoromethyl)-3-pyridyl]-2-[4-[2-[(1-cyclopropylpyrazol-4-yl)amino]pyrimidin-5-yl]-2-fluoro-phenyl]acetamide], the IC50 in test [1] and in test [2] was 0.0001 to 10 µM each time.

In the case of `CCn1cc(Nc2ncc(-c3ccc(CC(=O)Nc4cnc(OC)c(C(F)(F)F)c4)cc3)cn2)cn1` [Compound P-0253, 2-[4-[2-[(1-ethylpyrazol-4-yl)amino]pyrimidin-5-yl]phenyl]-N-[6-methoxy-5-(trifluoromethyl)-3-pyridyl]acetamide], the IC50 in test [1] and in test [2] was 0.0001 to 10 µM throughout.

Regarding `O=C(Cc1ccc(-c2cnc3[nH]c(-c4ccnc(N5CCOCC5)c4)cc3c2)c(F)c1)Nc1cncc(C(F)(F)F)c1` [Compound P-0201, 2-[3-fluoro-4-[2-(2-morpholino-4-pyridyl)-1H-pyrrolo[2,3-b]pyridin-5-yl]phenyl]-N-[5-(trifluoromethyl)-3-pyridyl]acetamide], the IC50 in test [1] and in test [2] was 0.0001 to 10 µM throughout.

For `COc1ncc(NC(=O)Cc2ccc(-c3cnc(Nc4cnn(C5CC5)c4)nc3)cc2)cc1C(F)(F)F` [Compound P-0234, 2-[4-[2-[(1-cyclopropylpyrazol-4-yl)amino]pyrimidin-5-yl]phenyl]-N-[6-methoxy-5-(trifluoromethyl)-3-pyridyl]acetamide], the IC50 in test [1] and in test [2] was 0.0001 to 10 µM throughout.

With `Cn1cnc(Nc2ncc(-c3ccc(CC(=O)Nc4cc(C(F)(F)F)ccn4)cc3)cn2)c1` [Compound P-0022, 2-[4-[2-[(1-methylimidazol-4-yl)amino]pyrimidin-5-yl]phenyl]-N-[4-(trifluoromethyl)-2-pyridyl]acetamide], the IC50 in test [1] and in test [2] was 0.0001 to 10 µM throughout.

Consider `Cn1cc(Nc2ncc(-c3cc(F)c(CC(=O)Nc4cc(C(F)(F)F)ccn4)cc3F)cn2)cn1` [Compound P-0019, 2-[2,5-difluoro-4-[2-[(1-methylpyrazol-4-yl)amino]pyrimidin-5-yl]phenyl]-N-[4-(trifluoromethyl)-2-pyridyl]acetamide], for which the IC50 in test [1] and in test [2] was 0.0001 to 10 µM throughout.

In the case of `CCn1cc(Nc2ncc(-c3ccc(CC(=O)Nc4cnc(C)c(C(F)(F)F)c4)cc3)cn2)cn1` [Compound P-0254, 2-[4-[2-[(1-ethylpyrazol-4-yl)amino]pyrimidin-5-yl]phenyl]-N-[6-methyl-5-(trifluoromethyl)-3-pyridyl]acetamide], the IC50 in test [1] and in test [2] was 0.0001 to 10 µM throughout.

For the compound `Cn1cc(Nc2ncc(-c3ccc(CC(=O)Nc4cc(C(F)(F)F)ccn4)cc3F)cn2)cn1` [Compound P-0017, 2-[3-fluoro-4-[2-[(1-methylpyrazol-4-yl)amino]pyrimidin-5-yl]phenyl]-N-[4-(trifluoromethyl)-2-pyridyl]acetamide], the IC50 in test [1] and in test [2] was 0.0001 to 10 µM in each case.

In the case of `COc1ncc(NC(=O)Cc2ccc(-c3cnc4[nH]c(C#CC(C)(C)O)cc4c3)cc2)cc1C(F)(F)F` [Compound P-0214, 2-(4-(2-(3-hydroxy-3-methylbut-1-yn-1-yl)-1H-pyrrolo[2,3-b]pyridin-5-yl)phenyl)-N-(6-methoxy-5-(trifluoromethyl)pyridin-3-yl)acetamide], the IC50 in test [1] and in test [2] was 0.0001 to 10 µM in each case.

For the compound `Cc1ncc(NC(=O)Cc2ccc(-c3cnc(Nc4cnn(C5CC5)c4)nc3)cc2F)cc1C(F)(F)F` [Compound P-0239, 2-[4-[2-[(1-cyclopropylpyrazol-4-yl)amino]pyrimidin-5-yl]-2-fluoro-phenyl]-N-[6-methyl-5-(trifluoromethyl)-3-pyridyl]acetamide], the IC50 in test [1] and in test [2] was 0.0001 to 10 µM throughout.

For `COc1ncc(NC(=O)Cc2ccc(-c3cnc(Nc4cnn(C(F)F)c4)nc3)cc2)cc1C(F)(F)F` [Compound P-0211, 2-[4-[2-[[1-(difluoromethyl)pyrazol-4-yl]amino]pyrimidin-5-yl]phenyl]-N-[6-methoxy-5-(trifluoromethyl)-3-pyridyl]acetamide], the IC50 in test [1] and in test [2] was 0.0001 to 10 µM each time.

With `CCn1cc(Nc2ncc(-c3ccc(CC(=O)Nc4cncc(C(F)(F)F)c4)c(F)c3)cn2)cn1` [Compound P-0258, 2-[4-[2-[(1-ethylpyrazol-4-yl)amino]pyrimidin-5-yl]-2-fluoro-phenyl]-N-[5-(trifluoromethyl)-3-pyridyl]acetamide], the IC50 in test [1] and in test [2] was 0.0001 to 10 µM throughout.

On to `COc1ncc(NC(=O)Cc2ccc(-c3cnc4[nH]nc(OC)c4c3)cc2)cc1C(F)(F)F` [Compound P-0212, 2-[4-(3-methoxy-1H-pyrazolo[3,4-b]pyridin-5-yl)phenyl]-N-[6-methoxy-5-(trifluoromethyl)-3-pyridyl]acetamide], for which the IC50 in test [1] and in test [2] was 0.0001 to 10 µM each time.

For the compound `CCOc1n[nH]c2ncc(-c3ccc(CC(=O)Nc4cnc(OC)c(C(F)(F)F)c4)cc3F)cc12` [Compound P-0202, 2-[4-(3-ethoxy-1H-pyrazolo[3,4-b]pyridin-5-yl)-3-fluoro-phenyl]-N-[6-methoxy-5-(trifluoromethyl)-3-pyridyl]acetamide], the IC50 in test [1] and in test [2] was 0.0001 to 10 µM throughout.

With `COCCn1cc(Nc2ncc(-c3ccc(CC(=O)Nc4cc(C(F)(F)F)ccn4)c(F)c3)cn2)cn1` [Compound P-0270, 2-[2-fluoro-4-[2-[[1-(2-methoxyethyl)pyrazol-4-yl]amino]pyrimidin-5-yl]phenyl]-N-[4-(trifluoromethyl)-2-pyridyl]acetamide], the IC50 in test [1] and in test [2] was 0.0001 to 10 µM throughout.

Consider `O=C(Cc1ccc(-c2cnc(Nc3cnn(C4CC4)c3)nc2)cc1F)Nc1ccc(C(F)(F)F)cn1` [Compound P-0243, 2-[4-[2-[(1-cyclopropylpyrazol-4-yl)amino]pyrimidin-5-yl]-2-fluoro-phenyl]-N-[5-(trifluoromethyl)-2-pyridyl]acetamide], for which the IC50 in test [1] and in test [2] was 0.0001 to 10 µM throughout.
